# Experimental data reported in patent US20090270404A1, “OXYMETHYLENE ARYL COMPOUNDS AND USES THEREOF” (Metabolex, Inc., priority 2008, published 2009).
# Assays:
# [1] = system: mice; assay: Incretin secretion of mice, dose response on top of sitagliptin; format: in vivo; details: increasing dosages (1, 3, 10, 30 and 300 mg/kg) given in addition to sitapliptin at 100 mg/kg, 10 minutes after glucose, FIG. 5a
# Protocol: 5-Ethyl-2-{4-[4-(4-tetrazol-1-yl-phenoxymethyl)-thiazol-2-yl]-piperidin-1-yl}-pyrimidine, sitagliptin, and vildagliptin were prepared as in Examples 1 and 2.
# Mice were fasted for 6 h prior to drug administration. Blood glucose was measured after the 6 h fast (T30 min), and animals were sorted into 6 groups evenly matched for fasting glucose levels and body weight. At T30 min, drug suspension as prepared in Example 1 herein, was administered to the mice by oral gavage. All groups were given sitagliptin at 100 mg/kg, and Compound 1 was given at 1, 3, 10, 30 and 300 mg/kg. 100 mg/kg sitagliptin was chosen since this dose is greater than that required to achieve 80% DPP-IV inhibition in mice over the time period evaluated in this study. (Kim et al, 2005). Glucose (2 g/kg) was administered by oral gavage at T0. Animals were anesthetized and blood drawn by terminal cardiac puncture 10 minutes after glucose administration. To address the effects on incretin production, total GIP levels were measured. […] The DPP-IV inhibitor sitagliptin was co-administered to prevent breakdown of active GLP-1 by DPP-IV (Kim et al; 2005). Statistical significance of differences in GLP-1, GIP and glucose levels between compound+sitagliptin treatment and sitagliptin alone was determined by one way ANOVA with Dunnet's post test. Differences with a p value less than 0.05 were considered significant. […]
# [2] = system: C57Bl/6J mice; assay: Oral glucose tolerance test in mice (with sitagliptin); format: in vivo; details: glucose 2 g/kg, FIG. 1
# Protocol: C57Bl/6J mice were fasted for 6 hours prior to drug administration. Blood glucose was measured after the 6 hour fast (T30 min), and animals were sorted into groups evenly matched for fasting glucose levels. At T30, drug suspension was administered to the mice by oral gavage. Glucose was administered at TO min at 2 g/kg. The administration volume was 5 mL/kg of body weight. Blood was sampled at TO, prior to glucose administration, then at 15, 30, 60, 90 and 120 min after glucose administration for measurement of glucose by glucometer. 10 mice were used for each dose group. The formulation of 5-Ethyl-2-{4-[4-(4-tetrazol-1-yl-phenoxymethyl)-thiazol-2-yl]-piperidin-1-yl}-pyrimidine and sitagliptin was 1% carboxymethylcellulose, 2% Tween 80 prepared in a manner essentially as described in Example 2. The formulation was a suspension and was continuously stirred during dosing of the animals.
# Glucose levels were plotted against time and the incremental area under the curve (AUC) of the glucose excursion was determined from T0 to T120 using GraphPad Prism 5.1. Statistical significance of differences in AUC between compound treatment and vehicle was determined by non-parametric Kruskal-Wallis test with Dunn's post test. […] Statistical differences in the glucose levels at each time point during OGTT were determined by two way ANOVA with Bonferroni's post test. […]
Compound,secretion of active GLP-1 [1],incremental AUC of the glucose excursion T0 to T120 ([2]; compound only at 30 mg/kg oral gavage),incremental AUC of the glucose excursion T0 to T120 ([2]; sitagliptin alone at 10 mg/kg oral gavage)
CCc1cnc(N2CCC(c3nc(COc4ccc(-n5cnnn5)cc4)cs3)CC2)nc1 [5-Ethyl-2-{4-[4-(4-tetrazol-1-yl-phenoxymethyl)-thiazol-2-yl]-piperidin-1-yl}-pyrimidine],stimulated secretion of active GLP-1,approximately 3200 mg.min/dl,
"N[C@@H](CC(=O)N1CCn2c(nnc2C(F)(F)F)C1)Cc1cc(F)c(F)cc1F [sitagliption, sitagliptin, reference compound]",,,approximately 2800 mg.min/dl
